Holding throughout (type): cell-based
Experiment [1] concerns Corynebacterium tuberculostearicum C1. In words: MIC test in 96 well plates (broth dilution, turbidity). The settings on record: average of three replicates, BHI-TW80 broth, sample in DMSO, read-out: Minimal inhibitory concentration (ppm) Corynebacterium tuberculostearicum C1. The protocol:
Bacterial suspension of the Corynebacterium tuberculostearicum C1 strain was prepared as follows: Stock culture (stored at −80° C.) was subcultured onto tryptic soy agar plates with 0.5% Tween 80 (TSA-TW80), and subsequently incubated at 37 °C for 48 h. The primary cultures were subcultured again onto TSA-TW80 to prepare the secondary cultures. One single colony of the secondary culture was then selected and used to inoculate 50 ml brain heart infusion broth with 0.5% Tween 80 (BHI-TW80). The inoculated broth was incubated at 37° C. and 180 rpm overnight. Aliquots (2 mL) of the overnight culture were inoculated into 50 ml of fresh BHI-TW80 broth media, and incubated at 37° C., 160 rpm. When the OD600 nm reached the target value of 4.0, cells were harvested by centrifugation at 5000 rpm for 10 min, and then resuspended in the fresh BHI-TW80 broth media at the same volume before the centrifugation. Aliquots (1 ml) of each cell suspension were diluted in 200 ml of fresh BHI-TW80 broth media as the bacterial solutions for the MIC test.
Sample solutions of test materials and reference material were prepared in ethanol for MIC test for E. coli and S. aureus strains or in DMSO for C. tuberculostearicum and C. acnes strains. In brief, stock solutions of 1% and 20% were prepared in each solvent, and then seven serial dilutions of each stock solution were prepared in each solvent to obtain a total of 16 solutions of the test material or the reference material. Aliquot (10 μl) of each solution was used for MIC test. The tested final concentrations of each material were 29, 44, 66, 99, 148, 222, 333, 500, 590, 900, 1300, 2000, 3000, 4500, 6700, 10000 ppm.
MIC test were performed in 96 well plates. […] Column 1 contained bacterial solution only (the positive growth control), and column 12 contained growth media only (the negative growth control). […]
Minimal inhibitory concentration (MIC) was determined as the lowest concentration where no growth was observed. Average MIC value of the three replicates was calculated against each strain.
A general note: In broth dilution the organism is exposed to a series of concentrations in liquid medium.

Experiment [2] concerns Escherichia coli ATCC 25922. The description is as above. As to conditions: ATCC25922, average of three replicates, MH broth, sample in ethanol, 37° C. overnight, read-out: Minimal inhibitory concentration (ppm) Escherichia coli ATCC 25922.
Experiment [3] concerns Cutibacterium acnes DSM 1897. The experiment can be described thus: MIC test in 96 well plates (broth dilution, turbidity), anaerobic strain. The settings on record: DSM1897, average of three replicates, WC broth, sample in DMSO, read-out: Minimal inhibitory concentration (ppm) Cutibacterium acnes DSM 1897.
For experiment [4], the system named is Staphylococcus aureus ATCC 6538. The experiment can be described thus: MIC test in 96 well plates (broth dilution, turbidity). The settings on record: ATCC6538, average of three replicates, MH broth, sample in ethanol, 37° C. overnight, read-out: Minimal inhibitory concentration (ppm) Staphylococcus aureus ATCC 6538.
The next experiment deals with Escherichia coli DSM 787. Described as above. As to conditions: DSM787, average of three replicates, MH broth, sample in ethanol, 37° C. overnight, read-out: Minimal inhibitory concentration (ppm) Escherichia coli DSM 787.

≈ marks a conversion by molar mass, not a printed value.

For `CCC=C(C)C(O)C(C)CC` (stereo not drawn) [3,5-dimethyl-5-octen-4-ol], the MIC in experiment [1] was determined as 2670 µg/mL (≈ 17100 µM); in experiment [2], 3500 µg/mL (≈ 22400 µM); in experiment [3], 1770 µg/mL (≈ 11300 µM); in experiment [4], 1530 µg/mL (≈ 9810 µM).
On to `CC(CCO)CCc1ccccc1` (stereo not drawn) [3-methyl-5-phenyl-1-pentanol], for which the MIC amounted to 200 µg/mL (≈ 1120 µM) in experiment [1], 259 µg/mL (≈ 1450 µM) in experiment [3], 360 µg/mL (≈ 2020 µM) with Escherichia coli DSM 787 and 185 µg/mL (≈ 1040 µM) in experiment [4].
`CC(O)CC(C)CCc1ccccc1` (stereo not drawn) [4-methyl-6-phenyl-2-hexanol]: the MIC in experiment [1] was 1300 µg/mL (≈ 6760 µM); in experiment [2], > 10000 µg/mL; in experiment [3] it was 148 µg/mL (≈ 770 µM); in experiment [4] it was 173 µg/mL (≈ 900 µM).

The record behind these values is US20240164373A1, “ANTIMICROBIAL PERFUMING CONSUMER PRODUCTS” (Firmenich SA, priority 2021, published 2024).
